# pIC50: −log10 of the molar value. Like-named read-outs stand apart in the source and are kept apart here.
# How the values were obtained:
# [1] = biological target: KRAS (G12D)::SOS1 protein-protein interaction (Homo sapiens (Human), UniProt P01116, G12D); assay: KRAS::SOS1 AlphaScreen binding assay (KRAS G12D); details: GDP
# Excerpt: This assay can be used to examine the potency with which compounds according to the invention binding to (mutated) KRAS inhibit the protein-protein interaction between SOS1 and (mutated) KRAS e.g. KRAS G12C, KRAS G12D. […] Low IC50 values in this assay setting are indicative of strong inhibition of protein-protein interaction between SOS1 and KRAS:
# These assays measure the inhibitory effect of compounds on KRAS mutant protein-protein interactions using the Alpha Screen technology by Perkin Elmer.
# The following (mutant) enzyme forms of KRAS and interacting proteins are used in these assays at the given concentrations:
# KRAS (G12D) 1-169, N-terminal 6His-tag, C-terminal avi-tag (Xtal BioStructures, Inc.); final assay concentration 10 nM and SOS1 564-1049, N-terminal 229 GST-tag, TEV cleavage site (Viva Biotech Ltd); final assay concentration 5 nM;
# Test compounds dissolved in DMSO are dispensed onto assay plates (Proxiplate 384 PLUS, white, PerkinElmer; 6008289) using an Access Labcyte Workstation with the Labcyte Echo 55x. For the chosen highest assay concentration of 100 μM, 150 nL of compound solution are transferred from a 10 mM DMSO compound stock solution. A series of eleven fivefold dilutions per compound are transferred to the assay plate, compound dilutions are tested in duplicates. DMSO are added as backfill to a total volume of 150 nL.
# The assays run on a fully automated robotic system in a darkened room below 100 Lux. To 150 nl of compound dilution 10 μl of a mix including KRAS mutant protein, SOS1 (final assay concentrations see above) and GDP nucleotide (Sigma G7127; final assay concentration 10 μM) in assay buffer (1×PBS, 0.1% BSA, 0.05% Tween 20) are added into columns 1-24.
# After 30 minutes incubation time 5 μl of Alpha Screen bead mix in assay buffer are added into columns 1-23. Bead mix consists of AlphaLISA Glutathione Acceptor Beads (PerkinElmer, Cat No AL109) and AlphaScreen Streptavidin Donor Beads (PerkinElmer Cat No 6760002) in assay buffer at a final assay concentration of 10 μg/mL each.
# Plates are kept at room temperature in a darkened incubator. After an additional 60 minutes incubation time the signal is measured in a PerkinElmer Envision HTS Multilabel Reader using the AlphaScreen specs from PerkinElmer.
# Each plate contains up to 16 wells of a negative control depending on the dilution procedure (platewise or serial) (DMSO instead of test compound; with KRAS mutant::SOS1 GOP mix and bead mix; column 23) and 16 wells of a positive control (DMSO instead of test compound; with KRAS mutant::SOS1 GOP mix w/o bead mix; column 24).
# As internal control known inhibitors of KRAS mutant::SOS1 interaction can be measured on each compound plate.
# IC50 values are calculated and analyzed with Boehringer Ingelheim's MEGALAB C50 application using a 4 parametric logistic model.
# Tables of example compounds disclosed herein contain IC50 values determined using the above assays (see Table 43).
# Ba/F3 cells KRAS G12D = assay: Ba/F3 proliferation assay (KRAS G12D); assay type: cell-based; details: Mus musculus, BaF3, 72 h, AlamarBlue viability
# Protocol: (§1) Ba/F3 cells are ordered from DSMZ (ACC300, Lot17) and grown in RPMI-1640 (ATCC 30-2001)+10% FCS+10 ng/mL IL-3 at 37° C. in 5% […] atmosphere. Plasmids containing KRASG12 mutants (i.e. […], G12C, G12V) are obtained from GeneScript. To generate KRASG12-dependent Ba/F3 models, Ba/F3 cells are transduced with retroviruses containing vectors that harbor KRASG12 isoforms. Platinum-E cells (Cell Biolabs) are used for retrovirus packaging. Retrovirus is added to Ba/F3 cells. To ensure infection, 4 μg/mL polybrene is added and cells are spinfected. Infection efficiency is confirmed by measuring GFP-positive cells using a cell analyzer. Cells with an infection efficiency of 10% to 20% are further cultivated and puromycin selection with 1 μg/mL is initiated. As a control, parental Ba/F3 cells are used to show selection status. Selection is considered successful when parental Ba/F3 cells cultures died. To evaluate the transforming potential of KRASG12 mutations, the growth medium is no longer supplemented with IL-3. Ba/F3 cells harboring the empty vector are used as a control. Approximately ten days before conducting the experiments, puromycin is left out.
# (§2) For proliferation assays, Ba/F3 cells are seeded into 384-well plates at 1.5×1 (M cells/60 μL in growth media (RPMI-1640+10% FCS). Compounds (10 mM stock in DMSO) are added at logarithmic dose series using the ECHO acoustic liquid handler system (Beckman Coulter), normalizing for added DMSO and including DMSO controls. All compound treatments are performed in technical duplicates. For the TO time point measurement, untreated cells are analyzed at the time of compound addition. Treated cells are incubated for 72 h at 37° C. with 5% CO2 and cell viability is measured in the PerkinElmer Envision Multimode Reader using AlamarBlue™ (ThermoFisher) viability stain. Viability (stated as percent of control) is defined as relative fluorescence units RFU of each well divided by the RFU of cells in DMSO controls. IC50 values are determined from viability measurements by non-linear regression using a four-parameter model.
# Ba/F3 cells KRAS G12C = assay: Ba/F3 proliferation assay (KRAS G12C); assay type: cell-based; details: Mus musculus, BaF3, 72 h, AlamarBlue viability
# Protocol: as §1, §2
# Ba/F3 cells KRAS G12V = assay: Ba/F3 proliferation assay (KRAS G12V); assay type: cell-based; details: Mus musculus, BaF3, 72 h, AlamarBlue viability
# Protocol: as §1, §2
# [2] = Metabolic (microsomal) stability assay, human liver microsomes (HLM); assay type: in vitro ADME; details: 1 μM test compound, predicted clearance as percent of liver blood flow
# Protocol: The metabolic degradation of the test compound is assayed at 37° C. with pooled liver microsomes (mouse (MLM), rat (RLM) or human (HLM)). The final incubation volume of 48 μL per time point contains TRIS buffer (pH 7.5; 0.1 M), magnesium chloride (6.5 mM), microsomal protein (0.5 mg/mL for mouse/rat, 1 mg/mL for human specimens) and the test compound at a final concentration of 1 μM. Following a short preincubation period at 37° C., the reactions are initiated by addition of 12 μL beta-nicotinamide adenine dinucleotide phosphate, reduced form (NADPH, 10 mM) and terminated by transferring an aliquot into solvent after different time points (0, 5, 15, 30, 60 min). Additionally, the NADPH-independent degradation is monitored in incubations without NADPH, terminated at the last time point by addition of acetonitrile. The quenched incubations are pelleted by centrifugation (4,000 rpm, 15 min). An aliquot of the supernatant is assayed by LC-MS/MS to quantify the concentration of parent compound in the individual samples.
# In vitro intrinsic clearance (CLint,in vitro) is calculated from the time course of the disappearance of the test drug during the microsomal incubation. Each plot is fitted to the first-order elimination rate constant as C(t)=C0*exp(−ke*t), where C(t) and C0 are the concentration of unchanged test drug at incubation time t and that at preincubation and ke is the disappearance rate constant of the unchanged drug. Subsequently, CLint, in vitro (μL min^−1·amount protein) values are converted to predicted CLint,in vivo (mL min^−1·kg^−1) from incubation parameters according to the equation CLint, in vivo=CLint, in vitro×(incubation volume (mL)/amount protein (mg))×(amount protein (mg)/g liver tissue)×(liver weight/body wt.).
# For better across species comparison the predicted clearance is expressed as percent of the liver blood flow [% QH] (mL min^−1·kg^−1) in the individual species. In general, high stability (corresponding to low % QH) of the compounds across species is desired.
# [3] = Solubility measurement (DMSO solution precipitation method); assay type: physicochemical; details: aqueous buffer, kinetic from dmso stock
# Protocol: A 10 mM DMSO stock solution of a test compound is used to determine its aq. solubility. The DMSO solution is diluted with an aq. medium (McIlvaine buffer with pH=4.5 or 6.8) to a final concentration of 250 μM. After 24 h of shaking at ambient temperature a potentially formed precipitate is removed by filtration. The concentration of the test compound in the filtrate is determined by LC-UV methods by calibrating the signal to the signal of a reference solution with complete dissolution of the test compound in acetonitrile/water (1:1) with known concentration.
# [4] = McIlvaine buffer pH 4.5, 24 h, read-out: solubility pH 4.5
# [5] = McIlvaine buffer pH 6.8, 24 h, read-out: solubility pH 6.8
# Chain of KRAS (G12D)::SOS1 protein-protein interaction (P01116 other isoform, or with tags, fused parts or gaps G12D): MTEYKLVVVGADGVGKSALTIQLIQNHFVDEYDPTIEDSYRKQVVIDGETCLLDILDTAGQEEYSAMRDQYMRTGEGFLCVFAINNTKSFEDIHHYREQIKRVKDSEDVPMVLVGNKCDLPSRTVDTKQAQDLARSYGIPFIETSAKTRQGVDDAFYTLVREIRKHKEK
pIC50 [1],pIC50 (Ba/F3 cells KRAS G12D),pIC50 (Ba/F3 cells KRAS G12C),pIC50 (Ba/F3 cells KRAS G12V),HLM QH [2] [%],"solubility at 24 h [3, 4] [µg/mL]","solubility at 24 h [3, 5] [µg/mL]",Structure (SMILES)
9.00,7.72,8.22,8.70,45,> 153,19,C[C@@H]1COC[C@H](n2c(=O)n(C)c3c(O[C@@H](C)[C@@H]4CC[C@H](C)N4C)nc(-c4onc5c4CCC[C@@]54CCCc5sc(N)c(C#N)c54)nc32)C1 [I-53]
8.70,8.52,8.70,9.00,63,> 148,53,CO[C@H]1CCN(C)[C@@H]1[C@H](C)Oc1nc(-c2onc3c2CCC[C@@]32CCCc3sc(N)c(C#N)c32)nc2c1n(C)c(=O)n2[C@H]1CO[C@@H](C)C1 [I-48]
,,,,35,> 145,56,CO[C@@H]1C[C@@H]([C@H](C)Oc2nc(-c3onc4c3CCC[C@@]43CCCc4sc(N)c(C#N)c43)nc3c2n(C)c(=O)n3[C@H]2CO[C@@H](C)C2)N(C)C1 [I-49]

# Reference: US20250019385A1, “SPIROCYCLIC ANNULATED 2-AMINO-3-CYANO THIOPHENES AND DERIVATIVES FOR THE TREATMENT OF CANCER” (Boehringer Ingelheim International GmbH, priority 2023, published 2025)
